# Marks after values point to notes of the source that are not given here.
# Test: Total solids content of produced milk in sorbitol feeding trials
# Format: in vivo, Holstein cows
# Settings: for Total Solids in Produced Milk: Pre-Partum Trial #1 (75/0/0 g/day in wk −3..−1/+1..+4/+5..+8)
# Procedure: To determine the weight percent total solids, wet basis, in a sample, the actual weight of total solids is determined by analyzing the sample in accordance with Method #925.23 (33.2.09) of Official Methods of Analysis, Association of Official Analytical Chemists (AOAC) (16th Ed., 1995). The weight percent total solids, wet basis, is then calculated by dividing the actual weight of total solids by the actual weight of the sample. Each cow of each of the six different trials (Control Trial #1, Control Trial #2, Pre-Partum Trial #1, Pre-Partum Trial #2, Pre/Post Trial #1, and Pre/Post Trial #2) was milked three times daily and the weight of produced milk by each cow was recorded at each milking. The milk from each cow was sampled once per week (⅓ of the sample volume from each of the three milkings occurring on the weekly milk sampling day) and was analyzed for true protein, total fat, lactose, and total solids, as detailed in the property determination and characterization techniques presented above. Additionally, samples of blood were periodically obtained from each cow during the four trials (Control Trial 2, Pre-Partum Trial #2, Pre/Post Trial #1, and Pre/Post Trial #2) encompassed in Example Two and were analyzed for non-esterified fatty acid (NEFA) content as detailed in the property determination and characterization techniques presented above. No NEFA analysis was conducted on the cows employed in Control Trial #1 or Pre-Partum Trial #1 that are the subject of Example One. Example One includes Control Trial #1 and Pre-Partum Trial #1. Both primiparious cows and multiparious cows were included in Control Trial #1 and Pre-Partum Trial #1. Five primiparious cows and fifteen multiparious cows were included in Control Trial #1; likewise, five primiparious cows and fifteen multiparious cows were included in Pre-Partum Trial #1. All cows included in Control Trial #1 and Pre-Partum Trial #1 were Holsteins. Example Two includes Control Trial #2, Pre-Partum Trial #2, Pre/Post Trial #1, and Pre/Post Trial #2. Only multiparious, Holstein cows were included in Control Trial #2, […], Pre/Post Trial #1, and Pre/Post Trial #2. Eighteen multiparious cows were included in both Control Trial #2 and Pre-Partum Trial #2, while sixteen multiparious cows were included in Pre/Post Trial #1 and seventeen multiparious cows were included in Pre/Post Trial #2.
compound,measurement,setting,value
OC[C@@H](O)[C@@H](O)[C@H](O)[C@@H](O)CO [sorbitol],Total Solids in Produced Milk,"multiparious cows, weeks +1 through +8",12.0^ab wt %
same,Total Solids in Produced Milk,"primiparious cows, weeks +1 through +8",13.0 wt %
same,increase in total solids concentration in the produced milk,"Pre-Partum Trial #1 (75 g/day wk −3..−1 only) versus Control Trial #1, primiparious cows, weeks +1 through +8",7.4%
same,Total Solids Content of Produced Milk,"Pre-Partum Trial #2 (75/0/100 g/day in wk −3..−1/+1..+4/+5..+8), multiparious cows, week +1",14.4^a weight %
same,Total Solids Content of Produced Milk,"Pre-Partum Trial #2 (75/0/100 g/day in wk −3..−1/+1..+4/+5..+8), multiparious cows, week +2",13.25 weight %
same,Total Solids Content of Produced Milk,"Pre-Partum Trial #2 (75/0/100 g/day in wk −3..−1/+1..+4/+5..+8), multiparious cows, week +3",12.54 weight %
same,Total Solids Content of Produced Milk,"Pre-Partum Trial #2 (75/0/100 g/day in wk −3..−1/+1..+4/+5..+8), multiparious cows, week +4",11.76^a weight %
same,Total Solids Content of Produced Milk,"Pre-Partum Trial #2 (75/0/100 g/day in wk −3..−1/+1..+4/+5..+8), multiparious cows, week +5",11.60^a weight %
same,Total Solids Content of Produced Milk,"Pre-Partum Trial #2 (75/0/100 g/day in wk −3..−1/+1..+4/+5..+8), multiparious cows, week +6",11.43^a weight %
same,Total Solids Content of Produced Milk,"Pre-Partum Trial #2 (75/0/100 g/day in wk −3..−1/+1..+4/+5..+8), multiparious cows, week +7",11.55 weight %
same,Total Solids Content of Produced Milk,"Pre-Partum Trial #2 (75/0/100 g/day in wk −3..−1/+1..+4/+5..+8), multiparious cows, week +8",11.45^ab weight %
same,Total Solids Content of Produced Milk,"Pre-Partum Trial #2 (75/0/100 g/day in wk −3..−1/+1..+4/+5..+8), multiparious cows, weeks +1 through +4",12.94^a weight %
same,Total Solids Content of Produced Milk,"Pre-Partum Trial #2 (75/0/100 g/day in wk −3..−1/+1..+4/+5..+8), multiparious cows, weeks +1 through +8",12.23^a weight %
same,Total Solids Content of Produced Milk,"Pre-Partum Trial #2 (75/0/100 g/day in wk −3..−1/+1..+4/+5..+8), multiparious cows, weeks +5 through +8",11.51^a weight %
same,Total Solids Content of Produced Milk,"Pre/Post Trial #1 (150/125/100 g/day in wk −3..−1/+1..+4/+5..+8), multiparious cows, week +1",15.3^ab weight %
same,Total Solids Content of Produced Milk,"Pre/Post Trial #1 (150/125/100 g/day in wk −3..−1/+1..+4/+5..+8), multiparious cows, week +1, two-trial comparison with Control Trial #2 (Table 26)",15.3 weight %
same,Total Solids Content of Produced Milk,"Pre/Post Trial #1 (150/125/100 g/day in wk −3..−1/+1..+4/+5..+8), multiparious cows, week +2",12.28 weight %
same,Total Solids Content of Produced Milk,"Pre/Post Trial #1 (150/125/100 g/day in wk −3..−1/+1..+4/+5..+8), multiparious cows, week +2, two-trial comparison with Control Trial #2 (Table 26)",13.28 weight %
same,Total Solids Content of Produced Milk,"Pre/Post Trial #1 (150/125/100 g/day in wk −3..−1/+1..+4/+5..+8), multiparious cows, week +3",12.84 weight %
same,Total Solids Content of Produced Milk,"Pre/Post Trial #1 (150/125/100 g/day in wk −3..−1/+1..+4/+5..+8), multiparious cows, week +3, two-trial comparison with Control Trial #2 (Table 26)",12.84 weight %
same,Total Solids Content of Produced Milk,"Pre/Post Trial #1 (150/125/100 g/day in wk −3..−1/+1..+4/+5..+8), multiparious cows, week +4",12.54^c weight %
same,Total Solids Content of Produced Milk,"Pre/Post Trial #1 (150/125/100 g/day in wk −3..−1/+1..+4/+5..+8), multiparious cows, week +4, two-trial comparison with Control Trial #2 (Table 26)",12.54 weight %
same,Total Solids Content of Produced Milk,"Pre/Post Trial #1 (150/125/100 g/day in wk −3..−1/+1..+4/+5..+8), multiparious cows, week +5",12.17^ab weight %
same,Total Solids Content of Produced Milk,"Pre/Post Trial #1 (150/125/100 g/day in wk −3..−1/+1..+4/+5..+8), multiparious cows, week +5, two-trial comparison with Control Trial #2 (Table 26)",12.17 weight %
same,Total Solids Content of Produced Milk,"Pre/Post Trial #1 (150/125/100 g/day in wk −3..−1/+1..+4/+5..+8), multiparious cows, week +6",12.08^b weight %
same,Total Solids Content of Produced Milk,"Pre/Post Trial #1 (150/125/100 g/day in wk −3..−1/+1..+4/+5..+8), multiparious cows, week +6, two-trial comparison with Control Trial #2 (Table 26)",12.08 weight %
same,Total Solids Content of Produced Milk,"Pre/Post Trial #1 (150/125/100 g/day in wk −3..−1/+1..+4/+5..+8), multiparious cows, week +7",11.71 weight %
same,Total Solids Content of Produced Milk,"Pre/Post Trial #1 (150/125/100 g/day in wk −3..−1/+1..+4/+5..+8), multiparious cows, week +7, two-trial comparison with Control Trial #2 (Table 26)",11.71 weight %
same,Total Solids Content of Produced Milk,"Pre/Post Trial #1 (150/125/100 g/day in wk −3..−1/+1..+4/+5..+8), multiparious cows, week +8",12.06^b weight %
same,Total Solids Content of Produced Milk,"Pre/Post Trial #1 (150/125/100 g/day in wk −3..−1/+1..+4/+5..+8), multiparious cows, week +8, two-trial comparison with Control Trial #2 (Table 26)",12.06 weight %
same,Total Solids Content of Produced Milk,"Pre/Post Trial #1 (150/125/100 g/day in wk −3..−1/+1..+4/+5..+8), multiparious cows, weeks +1 through +4",13.49^ab weight %
same,Total Solids Content of Produced Milk,"Pre/Post Trial #1 (150/125/100 g/day in wk −3..−1/+1..+4/+5..+8), multiparious cows, weeks +1 through +4, two-trial comparison with Control Trial #2 (Table 26)",13.49 weight %
same,Total Solids Content of Produced Milk,"Pre/Post Trial #1 (150/125/100 g/day in wk −3..−1/+1..+4/+5..+8), multiparious cows, weeks +1 through +8",12.76^b weight %
same,Total Solids Content of Produced Milk,"Pre/Post Trial #1 (150/125/100 g/day in wk −3..−1/+1..+4/+5..+8), multiparious cows, weeks +1 through +8, two-trial comparison with Control Trial #2 (Table 26)",12.76 weight %
same,Total Solids Content of Produced Milk,"Pre/Post Trial #1 (150/125/100 g/day in wk −3..−1/+1..+4/+5..+8), multiparious cows, weeks +5 through +8",12.02^b weight %
same,Total Solids Content of Produced Milk,"Pre/Post Trial #1 (150/125/100 g/day in wk −3..−1/+1..+4/+5..+8), multiparious cows, weeks +5 through +8, two-trial comparison with Control Trial #2 (Table 26)",12.02 weight %
same,increase in total solids concentration in milk,"Pre/Post Trial #1 (150/125/100 g/day) versus Control Trial #2, multiparious cows, weeks +1 through +4 (Table 26)",more than 3.7%
same,greater total solids concentration in milk,"Pre/Post Trial #1 (150/125/100 g/day) versus Control Trial #2, multiparious cows, weeks +1 through +8",4.6%
same,increase in total solids concentration in milk,"Pre/Post Trial #1 (150/125/100 g/day) versus Control Trial #2, multiparious cows, weeks +1 through +8 (Table 26)",~4.6%
same,greater total solids concentration in milk,"Pre/Post Trial #1 (150/125/100 g/day) versus Control Trial #2, multiparious cows, weeks +5 through +8",5.2%
same,increase in total solids concentration in milk,"Pre/Post Trial #1 (150/125/100 g/day) versus Control Trial #2, multiparious cows, weeks +5 through +8 (Table 26)",more than 5.2%
same,greater total solids concentration in milk,"Pre/Post Trial #1 (150/125/100 g/day) versus Pre-Partum Trial #2 (75/0/100 g/day), multiparious cows, weeks +1 through +8",4.3%
same,greater total solids concentration in milk,"Pre/Post Trial #1 (150/125/100 g/day) versus Pre-Partum Trial #2 (75/0/100 g/day), multiparious cows, weeks +5 through +8",4.4%
same,Total Solids Content of Produced Milk,"Pre/Post Trial #2 (75/75/100 g/day in wk −3..−1/+1..+4/+5..+8), multiparious cows, week +1",15.6^b weight %
same,Total Solids Content of Produced Milk,"Pre/Post Trial #2 (75/75/100 g/day in wk −3..−1/+1..+4/+5..+8), multiparious cows, week +2",13.61 weight %
same,Total Solids Content of Produced Milk,"Pre/Post Trial #2 (75/75/100 g/day in wk −3..−1/+1..+4/+5..+8), multiparious cows, week +3",12.92 weight %
same,Total Solids Content of Produced Milk,"Pre/Post Trial #2 (75/75/100 g/day in wk −3..−1/+1..+4/+5..+8), multiparious cows, week +4",12.43^bc weight %
same,Total Solids Content of Produced Milk,"Pre/Post Trial #2 (75/75/100 g/day in wk −3..−1/+1..+4/+5..+8), multiparious cows, week +5",12.38^b weight %
same,Total Solids Content of Produced Milk,"Pre/Post Trial #2 (75/75/100 g/day in wk −3..−1/+1..+4/+5..+8), multiparious cows, week +6",11.89^ab weight %
same,Total Solids Content of Produced Milk,"Pre/Post Trial #2 (75/75/100 g/day in wk −3..−1/+1..+4/+5..+8), multiparious cows, week +7",11.64 weight %
same,Total Solids Content of Produced Milk,"Pre/Post Trial #2 (75/75/100 g/day in wk −3..−1/+1..+4/+5..+8), multiparious cows, week +8",11.57^ab weight %
same,Total Solids Content of Produced Milk,"Pre/Post Trial #2 (75/75/100 g/day in wk −3..−1/+1..+4/+5..+8), multiparious cows, weeks +1 through +4",13.63^b weight %
same,Total Solids Content of Produced Milk,"Pre/Post Trial #2 (75/75/100 g/day in wk −3..−1/+1..+4/+5..+8), multiparious cows, weeks +1 through +8",12.73^b weight %
same,Total Solids Content of Produced Milk,"Pre/Post Trial #2 (75/75/100 g/day in wk −3..−1/+1..+4/+5..+8), multiparious cows, weeks +5 through +8",11.87^ab weight %
same,greater total solids concentration in milk,"Pre/Post Trial #2 (75/75/100 g/day) versus Control Trial #2, multiparious cows, weeks +1 through +4",4.8%
same,greater total solids concentration in milk,"Pre/Post Trial #2 (75/75/100 g/day) versus Control Trial #2, multiparious cows, weeks +1 through +8",4.3%
same,greater total solids concentration in milk,"Pre/Post Trial #2 (75/75/100 g/day) versus Pre-Partum Trial #2 (75/0/100 g/day), multiparious cows, weeks +1 through +4",5.3%
same,greater total solids concentration in milk,"Pre/Post Trial #2 (75/75/100 g/day) versus Pre-Partum Trial #2 (75/0/100 g/day), multiparious cows, weeks +1 through +8",4.1%
same,increase in total solids concentration in milk,"average of means of Pre-Partum Trial #2, Pre/Post Trial #1 and Pre/Post Trial #2 versus Control Trial #2, multiparious cows, weeks +1 through +4",2.7%
same,increase in total solids concentration in milk,"average of means of Pre-Partum Trial #2, Pre/Post Trial #1 and Pre/Post Trial #2 versus Control Trial #2, multiparious cows, weeks +1 through +8",1.1%
same,increase in total solids concentration in milk,"average of means of Pre-Partum Trial #2, Pre/Post Trial #1 and Pre/Post Trial #2 versus Control Trial #2, multiparious cows, weeks +5 through +8",3.3%
